In publication PMC8231556, “Inhibiting Endothelial Cell Function in Normal and Tumor Angiogenesis Using BMP Type I Receptor Macrocyclic Kinase Inhibitors” (Cancers, 2021):

Tests used:
Experiment in all cases: radiometric kinase profiling (33 PanQinase)
Format in all cases: biochemical
NTRK1 = target: T1, NTRK1 (Homo sapiens, UniProt P04629); conditions: read-out: Inhibitory effect (%) NTRK1
T1 construct: purchased ProQinase (33PanQinase Activity Assay)
Description: (§1) The kinase inhibition profile of the compounds was determined by testing 96 protein kinases’ activity using a radiometric protein kinase assay (33 PanQinase® Activity Assay, Proqinase, Germany). In brief, 10 µL of non-radioactive ATP solution (in H2O), 25 µL of assay buffer/[γ-33 P]-ATP mixture, 5 µL of 0.1 μM the tested compound in 10% DMSO and 10 µL of enzyme/substrate were mixed in 96-well FlashPlatesTM (Perkin Elmer, Boston, MA, USA). The reaction was conducted at 30 °C for 60 min. To stop the reaction, 50 µL of 2% (v/v) H3PO4 was added into the protein kinase reaction cocktails. After which, with 200 µL 0.9% (w/v) NaCl twice, the incorporation of ^33 Pi (counting of “cpm”) was determined with a microplate scintillation counter (Wallac Microbeta, Boston, MA, USA). All protein kinase assays were performed using a BeckmanCoulter Biomek 2000/SL robotic system (Brea, CA, USA). The residual activity (in %) for each compound was normalized to 100% enzyme activity (untreated control) and background (negative control).

MAPK3 = target: T2, MAPK3 (Homo sapiens, UniProt P27361); conditions: read-out: Inhibitory effect (%) MAPK3
T2 construct: purchased ProQinase (33PanQinase Activity Assay)
T2 sequence (P27361 whole entry): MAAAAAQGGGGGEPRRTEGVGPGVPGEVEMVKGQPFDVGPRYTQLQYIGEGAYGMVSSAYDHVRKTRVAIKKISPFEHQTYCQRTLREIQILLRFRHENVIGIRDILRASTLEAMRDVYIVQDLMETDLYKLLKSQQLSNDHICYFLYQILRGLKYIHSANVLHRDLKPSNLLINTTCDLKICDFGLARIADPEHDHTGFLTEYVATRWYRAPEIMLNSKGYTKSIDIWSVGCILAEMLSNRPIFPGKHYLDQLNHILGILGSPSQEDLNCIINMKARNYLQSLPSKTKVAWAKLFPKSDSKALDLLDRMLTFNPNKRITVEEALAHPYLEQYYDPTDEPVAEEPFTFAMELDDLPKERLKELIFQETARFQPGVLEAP
Description: as §1

DYRK1A = target: T3, DYRK1A (Homo sapiens, UniProt Q13627); conditions: read-out: Inhibitory effect (%) DYRK1A
T3 construct: purchased Proqinase, Germany
Description: as §1

MAP3K5 = target: T4, MAP3K5 (Homo sapiens, UniProt Q99683); conditions: read-out: Inhibitory effect (%) MAP3K5
T4 construct: purchased ProQinase (33PanQinase Activity Assay)
T4 sequence (Q99683 1-1374): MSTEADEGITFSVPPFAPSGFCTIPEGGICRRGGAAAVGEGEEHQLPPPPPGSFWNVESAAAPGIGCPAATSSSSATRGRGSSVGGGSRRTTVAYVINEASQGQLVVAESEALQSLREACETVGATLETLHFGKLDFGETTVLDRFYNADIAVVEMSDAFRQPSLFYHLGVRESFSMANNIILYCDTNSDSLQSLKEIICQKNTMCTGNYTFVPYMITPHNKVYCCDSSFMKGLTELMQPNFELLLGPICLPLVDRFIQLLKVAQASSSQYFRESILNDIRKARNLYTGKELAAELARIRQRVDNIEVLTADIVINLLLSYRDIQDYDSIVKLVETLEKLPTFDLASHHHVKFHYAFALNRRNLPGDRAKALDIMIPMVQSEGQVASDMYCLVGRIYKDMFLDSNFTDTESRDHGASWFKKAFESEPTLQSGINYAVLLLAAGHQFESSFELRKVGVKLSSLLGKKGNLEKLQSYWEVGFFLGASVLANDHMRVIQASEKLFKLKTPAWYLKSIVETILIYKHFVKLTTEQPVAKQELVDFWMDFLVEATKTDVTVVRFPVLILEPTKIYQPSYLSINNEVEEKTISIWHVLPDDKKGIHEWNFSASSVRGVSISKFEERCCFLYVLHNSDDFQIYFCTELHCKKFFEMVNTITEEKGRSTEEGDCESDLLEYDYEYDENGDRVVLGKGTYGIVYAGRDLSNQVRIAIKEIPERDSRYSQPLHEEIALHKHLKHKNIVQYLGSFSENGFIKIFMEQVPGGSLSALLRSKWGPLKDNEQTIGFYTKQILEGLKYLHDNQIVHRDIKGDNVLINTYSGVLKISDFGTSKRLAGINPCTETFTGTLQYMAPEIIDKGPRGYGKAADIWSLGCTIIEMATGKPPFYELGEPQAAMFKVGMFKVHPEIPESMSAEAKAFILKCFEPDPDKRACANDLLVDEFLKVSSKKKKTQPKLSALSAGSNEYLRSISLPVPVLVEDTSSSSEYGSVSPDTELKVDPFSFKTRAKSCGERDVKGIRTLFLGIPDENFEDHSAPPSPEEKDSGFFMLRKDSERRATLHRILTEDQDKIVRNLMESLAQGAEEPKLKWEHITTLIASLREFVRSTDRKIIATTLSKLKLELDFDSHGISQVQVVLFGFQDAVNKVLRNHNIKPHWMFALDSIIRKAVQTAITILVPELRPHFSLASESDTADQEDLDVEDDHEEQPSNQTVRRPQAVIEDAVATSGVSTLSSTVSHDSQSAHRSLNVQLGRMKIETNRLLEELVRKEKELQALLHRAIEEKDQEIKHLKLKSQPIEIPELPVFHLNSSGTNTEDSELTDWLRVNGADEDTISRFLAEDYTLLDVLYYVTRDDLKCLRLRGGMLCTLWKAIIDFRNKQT
Description: as §1

EIF2AK1 = target: T5, EIF2AK1 (Homo sapiens, UniProt Q9BQI3); conditions: read-out: Inhibitory effect (%) EIF2AK1
T5 construct: purchased Proqinase, Germany
T5 sequence (Q9BQI3 whole entry): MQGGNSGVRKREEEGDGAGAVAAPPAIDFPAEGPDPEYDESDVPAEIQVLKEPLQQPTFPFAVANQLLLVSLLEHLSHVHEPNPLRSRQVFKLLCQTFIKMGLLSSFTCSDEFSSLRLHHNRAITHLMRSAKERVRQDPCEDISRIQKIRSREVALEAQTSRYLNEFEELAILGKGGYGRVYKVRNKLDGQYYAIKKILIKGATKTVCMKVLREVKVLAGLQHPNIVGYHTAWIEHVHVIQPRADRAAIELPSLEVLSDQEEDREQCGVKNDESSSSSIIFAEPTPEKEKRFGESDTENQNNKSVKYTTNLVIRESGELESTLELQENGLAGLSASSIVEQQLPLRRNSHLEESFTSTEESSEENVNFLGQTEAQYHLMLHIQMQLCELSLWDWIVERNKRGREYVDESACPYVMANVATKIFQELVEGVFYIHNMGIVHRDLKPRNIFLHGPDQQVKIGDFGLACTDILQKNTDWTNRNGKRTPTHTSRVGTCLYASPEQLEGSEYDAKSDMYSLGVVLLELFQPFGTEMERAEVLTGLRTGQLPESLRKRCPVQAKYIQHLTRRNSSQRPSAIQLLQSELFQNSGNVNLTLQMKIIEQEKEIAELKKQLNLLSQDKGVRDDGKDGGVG
Description: as §1

MAP3K8 = target: T6, MAP3K8 (Homo sapiens, UniProt P41279); conditions: read-out: Inhibitory effect (%) MAP3K8
T6 construct: purchased ProQinase (33PanQinase Activity Assay)
T6 sequence (P41279 whole entry): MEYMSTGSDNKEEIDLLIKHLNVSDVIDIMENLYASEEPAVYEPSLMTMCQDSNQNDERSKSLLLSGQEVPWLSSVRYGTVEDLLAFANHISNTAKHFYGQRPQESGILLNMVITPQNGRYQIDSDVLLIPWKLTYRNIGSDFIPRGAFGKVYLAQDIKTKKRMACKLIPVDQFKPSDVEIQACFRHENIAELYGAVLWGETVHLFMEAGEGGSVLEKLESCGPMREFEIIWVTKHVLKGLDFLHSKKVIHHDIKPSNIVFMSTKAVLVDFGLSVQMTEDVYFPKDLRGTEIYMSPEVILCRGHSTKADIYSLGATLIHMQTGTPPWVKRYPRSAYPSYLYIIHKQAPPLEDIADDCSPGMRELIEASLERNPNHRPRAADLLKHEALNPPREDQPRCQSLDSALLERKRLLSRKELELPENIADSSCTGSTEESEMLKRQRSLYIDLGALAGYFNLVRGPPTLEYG
Description: as §1

MAP3K7 = target: T7, MAP3K7 (Homo sapiens, UniProt O43318); conditions: read-out: Inhibitory effect (%) MAP3K7
T7 construct: purchased ProQinase (33PanQinase Activity Assay)
T7 sequence (O43318 1-303 limits assumed): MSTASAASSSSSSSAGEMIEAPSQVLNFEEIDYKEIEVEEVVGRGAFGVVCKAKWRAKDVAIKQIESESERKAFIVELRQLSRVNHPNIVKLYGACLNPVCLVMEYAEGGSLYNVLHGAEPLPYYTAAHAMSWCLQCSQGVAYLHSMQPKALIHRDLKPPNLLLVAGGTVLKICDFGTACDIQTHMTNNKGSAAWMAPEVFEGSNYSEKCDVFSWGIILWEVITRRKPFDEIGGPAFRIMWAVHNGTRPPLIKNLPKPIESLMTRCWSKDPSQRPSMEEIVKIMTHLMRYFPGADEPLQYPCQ
Description: as §1

T1 sequence (P04629 33-796): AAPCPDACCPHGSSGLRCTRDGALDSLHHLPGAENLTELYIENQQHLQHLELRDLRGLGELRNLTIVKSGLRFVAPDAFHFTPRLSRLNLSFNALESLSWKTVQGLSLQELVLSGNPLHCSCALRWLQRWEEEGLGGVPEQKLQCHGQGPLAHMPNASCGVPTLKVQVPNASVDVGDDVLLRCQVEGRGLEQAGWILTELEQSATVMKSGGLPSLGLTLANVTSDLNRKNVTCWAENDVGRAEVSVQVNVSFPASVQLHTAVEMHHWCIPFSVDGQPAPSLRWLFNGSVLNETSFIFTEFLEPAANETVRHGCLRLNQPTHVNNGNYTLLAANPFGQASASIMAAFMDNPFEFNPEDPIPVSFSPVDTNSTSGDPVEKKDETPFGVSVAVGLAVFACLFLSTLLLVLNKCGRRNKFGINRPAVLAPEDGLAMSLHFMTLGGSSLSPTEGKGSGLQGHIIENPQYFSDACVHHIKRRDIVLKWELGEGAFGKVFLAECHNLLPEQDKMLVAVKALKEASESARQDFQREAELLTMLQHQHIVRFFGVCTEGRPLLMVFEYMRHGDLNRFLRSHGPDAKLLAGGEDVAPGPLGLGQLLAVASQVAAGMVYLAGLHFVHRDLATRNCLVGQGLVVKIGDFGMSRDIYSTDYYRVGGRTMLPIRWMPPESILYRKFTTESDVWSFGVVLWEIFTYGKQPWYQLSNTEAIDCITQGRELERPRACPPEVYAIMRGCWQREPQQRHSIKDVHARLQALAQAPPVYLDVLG

Row | SMILES | inhibition at 0.1 µM (NTRK1) | inhibition at 0.1 µM (MAPK3) | inhibition at 0.1 µM (DYRK1A) | inhibition at 0.1 µM (MAP3K5) | inhibition at 0.1 µM (EIF2AK1) | inhibition at 0.1 µM (MAP3K8) | inhibition at 0.1 µM (MAP3K7)
1 | CN1CCC(=O)NCCNc2ccn3ncc(c3n2)-c2cccc(c2)C1 [OD29] | 69.6% | -7.55% | -7.58% | 0.68% | -0.05% | -5.03% | 11.4%
2 | c1ccc2c(-c3cnn4cc(-c5ccc(N6CCNCC6)cc5)cnc34)ccnc2c1 [LDN-193189, reference compound] | 14.1% | -8.08% | -15.6% | 6.9% | -16.3% | -10.3% | 7.07%
3 | CN1CCc2cccc(c2)Nc2nccc(n2)N2CCCc3cc(ccc32)C1 [OD16] | -37.9% | -13.8% | -6.26% | -11.3% | -7.88% | -16.9% | -6.98%
